This passage reports IC50 results from US11304946B2, “2-hetarylpyrimidine-4-carboxamides as aryl hydrocarbon receptor antagonists” (Bayer Aktiengesellschaft, priority 2017, dated 2022).

As a reminder, the IC50 is the midpoint of a concentration-inhibition curve. Higher therefore signals weaker potency.

One assay addresses T1, Human AhR (Homo sapiens, UniProt P35869).
T1 construct: host or cells: U87 glioblastoma cells, stably transfected with DRE-driven firefly luciferase and constitutive renilla reporter constructs
T1 sequence (P35869 11-848): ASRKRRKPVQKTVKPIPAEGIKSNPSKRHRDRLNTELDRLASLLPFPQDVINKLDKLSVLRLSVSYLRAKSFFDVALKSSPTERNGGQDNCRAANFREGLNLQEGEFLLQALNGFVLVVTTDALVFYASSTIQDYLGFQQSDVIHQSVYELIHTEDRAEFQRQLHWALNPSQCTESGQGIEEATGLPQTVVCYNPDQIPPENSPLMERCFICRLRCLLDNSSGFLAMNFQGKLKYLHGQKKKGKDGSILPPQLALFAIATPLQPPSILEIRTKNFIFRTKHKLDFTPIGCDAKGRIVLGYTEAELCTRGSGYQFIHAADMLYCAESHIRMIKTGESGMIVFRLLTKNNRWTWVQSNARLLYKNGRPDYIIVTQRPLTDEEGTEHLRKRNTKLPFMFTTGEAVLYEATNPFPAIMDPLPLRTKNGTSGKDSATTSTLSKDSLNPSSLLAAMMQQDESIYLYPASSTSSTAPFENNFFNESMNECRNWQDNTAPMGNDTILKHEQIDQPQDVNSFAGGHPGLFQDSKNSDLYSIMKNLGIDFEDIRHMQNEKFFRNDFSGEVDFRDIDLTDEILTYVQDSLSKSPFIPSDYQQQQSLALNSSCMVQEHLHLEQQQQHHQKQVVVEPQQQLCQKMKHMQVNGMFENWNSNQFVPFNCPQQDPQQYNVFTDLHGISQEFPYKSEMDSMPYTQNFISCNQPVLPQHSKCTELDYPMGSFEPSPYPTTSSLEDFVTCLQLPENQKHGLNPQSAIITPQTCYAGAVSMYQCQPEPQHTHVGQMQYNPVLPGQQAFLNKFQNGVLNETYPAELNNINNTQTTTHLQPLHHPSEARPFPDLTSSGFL
As to the kind of experiment: Transactivation assay in human cell line (in vitro assay 1: antagonism). In kind it is cell-based. The note with it: U87 glioblastoma cells, AHR inducible (DRE) firefly luciferase reporter, 150 μM kynurenic acid, 20 hours. As to the method:
Transactivation Assay in Human Cell Line (In Vitro Assay 1)
Transactivation assay was carried out in U87 glioblastoma cells (ATCC) endogenously expressing AHR. In addition the cells were stably transfected with an AHR inducible firefly luciferase reporter gene construct that carried AHR-binding sites (DRE) in its promoter and a renilla reporter gene construct with constitutively active promoter. Kynurenic acid is an endogenous AHR activating ligand and was used to prestimulate test cells prior to testing the antagonistic properties of compounds.
In Vitro Assay 1: Antagonism in Human Cell Line
Firefly luciferase and Renilla activity was determined by the DualGlo Luciferase Assay System (Promega, #2920). Renilla activity was used to assess toxic effects of compounds.
For orientation: A reporter such as luciferase makes a cellular process visible.

A further assay concerns the target T2, Mouse AhR (Mus musculus, UniProt P30561).
T2 sequence (P30561 1-848): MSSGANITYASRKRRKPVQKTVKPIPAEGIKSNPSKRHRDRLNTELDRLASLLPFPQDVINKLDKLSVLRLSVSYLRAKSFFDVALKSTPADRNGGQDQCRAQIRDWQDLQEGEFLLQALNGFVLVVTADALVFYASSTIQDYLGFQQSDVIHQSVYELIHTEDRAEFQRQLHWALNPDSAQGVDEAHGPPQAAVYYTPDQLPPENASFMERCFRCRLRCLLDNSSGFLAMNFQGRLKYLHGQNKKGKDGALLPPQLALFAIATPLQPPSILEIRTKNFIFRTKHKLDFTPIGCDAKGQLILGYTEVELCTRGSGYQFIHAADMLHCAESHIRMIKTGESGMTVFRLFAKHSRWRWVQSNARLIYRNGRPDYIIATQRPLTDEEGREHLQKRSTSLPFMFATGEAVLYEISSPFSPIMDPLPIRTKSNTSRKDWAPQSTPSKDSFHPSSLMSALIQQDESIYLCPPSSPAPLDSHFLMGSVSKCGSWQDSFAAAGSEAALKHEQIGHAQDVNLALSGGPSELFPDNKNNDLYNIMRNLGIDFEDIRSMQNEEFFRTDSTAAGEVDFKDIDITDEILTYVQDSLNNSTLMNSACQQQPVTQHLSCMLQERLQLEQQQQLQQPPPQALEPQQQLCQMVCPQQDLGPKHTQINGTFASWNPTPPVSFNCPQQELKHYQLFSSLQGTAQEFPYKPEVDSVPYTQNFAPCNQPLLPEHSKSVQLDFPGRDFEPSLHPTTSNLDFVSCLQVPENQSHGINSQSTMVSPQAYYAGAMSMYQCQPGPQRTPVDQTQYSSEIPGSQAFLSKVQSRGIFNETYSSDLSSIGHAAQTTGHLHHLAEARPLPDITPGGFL
Description: Transactivation assay in mouse cell line (in vitro assay 2: antagonism). In kind it is cell-based. The note with it: Hepa 1c1c7 cells, AHR inducible (DRE) firefly luciferase reporter, 200 μM kynurenic acid, 20 hours. As to the method: Transactivation Assay in Mouse Cell Line (In Vitro Assay 2)
Transactivation assay was carried out in Hepa 1c1c7 cells (ATCC #CRL-2026) endogenously expressing AHR. In addition the cells were stably transfected with an AHR inducible firefly luciferase reporter gene construct that carried AHR-binding sites (DRE) in its promoter. Kynurenic acid is an endogenous AHR activating ligand and was used to prestimulate test cells prior to testing the antagonistic properties of compounds.
In Vitro Assay 2: Antagonism in Mouse Cell Line
Firefly luciferase activity was determined by the SteadyGlo Luciferase Assay System (Promega, #E2550).

Regarding `Cn1cc(-c2nc(C(=O)N[C@@H]3CC[C@H]3O)cc(-c3ccc(OC(F)(F)F)cc3)n2)cn1` (relative stereo) [Example 86, N-[(trans)-2-hydroxycyclobutyl]-2-(1-methyl-1H-pyrazol-4-yl)-6-[4-(trifluoromethoxy)phenyl]pyrimidine-4-carboxamide], the figures for the IC50 against Human AhR and at Mouse AhR were 5.74 nM and 7.07 nM, respectively.
As for `Cn1cc(-c2nc(C(=O)N[C@H]3CCCC[C@@H]3O)cc(-c3ccc(OC(F)(F)F)cc3)n2)cn1` (relative stereo) [Example 92, N-[(trans)-2-hydroxycyclohexyl]-2-(1-methyl-1H-pyrazol-4-yl)-6-[4-(trifluoromethoxy)phenyl]pyrimidine-4-carboxamide], the IC50 worked out at 4.27 nM against Human AhR and 5.79 nM at Mouse AhR.
As for `Cn1cc(-c2nc(C(=O)N[C@@H]3CS(=O)(=O)C[C@H]3O)cc(-c3ccc(OC(F)(F)F)cc3)n2)cn1` (relative stereo) [Example 100, N-[(trans)-4-hydroxy-1,1-dioxo-1lambda^6-thiolan-3-yl]-2-(1-methyl-1H-pyrazol-4-yl)-6-[4-(trifluoromethoxy)phenyl]pyrimidine-4-carboxamide], the IC50 is 10.1 nM against Human AhR and 8.18 nM against Mouse AhR.
In the same order, the values of `Cn1cc(-c2nc(C(=O)N[C@@H]3COC[C@@H]3O)cc(-c3ccc(OC(F)(F)F)cc3)n2)cn1` (relative stereo) [Example 105, N-[(cis)-4-hydroxyoxolan-3-yl]-2-(1-methyl-1H-pyrazol-4-yl)-6-[4-(trifluoromethoxy)phenyl]pyrimidine-4-carboxamide] are 8.48 nM and 6.01 nM.
The corresponding values for `Cn1cc(-c2nc(C(=O)N[C@H]3CCC[C@@H]3O)cc(-c3ccc(OC(F)(F)F)cc3)n2)cn1` (stereo in doubt) [Example 87, N-[(trans)-2-hydroxycyclopentyl]-2-(1-methyl-1H-pyrazol-4-yl)-6-[4-(trifluoromethoxy)phenyl]pyrimidine-4-carboxamide] are 5.33 nM and 3.93 nM.
In the same order, the values of `Cn1cc(-c2nc(C(=O)N[C@@H]3CCC[C@H]3O)cc(-c3ccc(OC(F)(F)F)cc3)n2)cn1` (stereo in doubt) [Example 96, N-[(trans)-2-hydroxycyclopentyl]-2-(1-methyl-1H-pyrazol-4-yl)-6-[4-(trifluoromethoxy)phenyl]pyrimidine-4-carboxamide] are 53.2 nM and 56.1 nM.
With `C[C@@H](CO)NC(=O)c1cc(-c2ccc(OC(F)(F)F)cc2)nc(-c2cccnc2)n1` [Example 1, N-[(2S)-1-hydroxypropan-2-yl]-2-(pyridin-3-yl)-6-[4-(trifluoromethoxy)phenyl]pyrimidine-4-carboxamide], the IC50 against Human AhR came out at 0.885 nM; against Mouse AhR, 2.03 nM.
In the same order, the values of `C[C@H](CO)NC(=O)c1cc(-c2ccc(OC(F)(F)F)cc2)nc(-c2cccnc2)n1` [Example 2, N-[(2R)-1-hydroxypropan-2-yl]-2-(pyridin-3-yl)-6-[4-(trifluoromethoxy)phenyl]pyrimidine-4-carboxamide] are 2.88 nM and 20.3 nM.
`CC(C)(O)CNC(=O)c1cc(-c2ccc(C(F)(F)F)cc2)nc(-c2cccnc2)n1` [Example 7, N-(2-hydroxy-2-methylpropyl)-2-(pyridin-3-yl)-6-[4-(trifluoromethyl)phenyl]pyrimidine-4-carboxamide] displayed an IC50 on Mouse AhR of 12.7 nM.
As for `COc1ccncc1-c1nc(C(=O)NCC(C)(C)O)cc(-c2ccc(Cl)cc2)n1` [Example 61, 6-(4-chlorophenyl)-N-(2-hydroxy-2-methylpropyl)-2-(4-methoxypyridin-3-yl)pyrimidine-4-carboxamide], it took 4.8 nM to reach half-maximal inhibition against Mouse AhR (IC50).
For `COc1ccc(-c2nc(C(=O)N[C@@H](C)CO)cc(-c3ccc(Cl)cc3)n2)cn1` [Example 69, 6-(4-chlorophenyl)-N-[(2S)-1-hydroxypropan-2-yl]-2-(6-methoxypyridin-3-yl)pyrimidine-4-carboxamide], the midpoint of inhibition at Human AhR, the IC50, lay at 342 nM.
Same read-out and setting: the value for `CC(C)Cn1cc(-c2nc(C(=O)N[C@@H](C)CO)cc(-c3ccc(Cl)cc3)n2)cn1` [Example 77, 6-(4-chlorophenyl)-N-[(2S)-1-hydroxypropan-2-yl]-2-[1-(2-methylpropyl)-1H-pyrazol-4-yl]pyrimidine-4-carboxamide] was 1180 nM; that for `C[C@@H](CO)NC(=O)c1cc(-c2ccc(Cl)cc2)nc(-c2ccc(C#N)nc2)n1` [Example 78, 6-(4-chlorophenyl)-2-(6-cyanopyridin-3-yl)-N-[(2S)-1-hydroxypropan-2-yl]pyrimidine-4-carboxamide] was 741 nM; that for `C[C@@H](CO)NC(=O)c1cc(-c2ccc(Cl)cc2)nc(-c2cn[nH]c2)n1` [Example 81, 6-(4-chlorophenyl)-N-[(2S)-1-hydroxypropan-2-yl]-2-(1H-pyrazol-4-yl)pyrimidine-4-carboxamide] was 1040 nM.
As to `Cc1n[nH]cc1-c1nc(C(=O)N[C@@H](C)CO)cc(-c2ccc(Cl)cc2)n1` [Example 82, 6-(4-chlorophenyl)-N-[(2S)-1-hydroxypropan-2-yl]-2-(3-methyl-1H-pyrazol-4-yl)pyrimidine-4-carboxamide], on Human AhR, the midpoint of inhibition, the IC50, lay at 215 nM.
The molecule `C[C@@H](CO)NC(=O)c1cc(-c2ccc(Cl)cc2)nc(-c2cnc(Cl)nc2)n1` [Example 84, 2′-chloro-6-(4-chlorophenyl)-N-[(2S)-1-hydroxypropan-2-yl][2,5′-bipyrimidine]-4-carboxamide] registered an IC50 against Human AhR of 17600 nM.
In the case of `Cn1cc(-c2nc(C(=O)NCC3(O)CCC3)cc(-c3ccc(OC(F)(F)F)cc3)n2)cn1` [Example 97, N-[(1-hydroxycyclobutyl)methyl]-2-(1-methyl-1H-pyrazol-4-yl)-6-[4-(trifluoromethoxy)phenyl]pyrimidine-4-carboxamide], at Human AhR, the midpoint of inhibition, the IC50, lay at 4.99 nM.
On Mouse AhR, `CC(C)[C@@H](CO)NC(=O)c1cc(-c2ccc(OC(F)(F)F)cc2)nc(-c2cnn(C)c2)n1` [Example 116, N-[(2S)-1-hydroxy-3-methylbutan-2-yl]-2-(1-methyl-1H-pyrazol-4-yl)-6-[4-(trifluoromethoxy)phenyl]pyrimidine-4-carboxamide] returned an IC50 of 1.97 nM.
The same measure, in the same setting: the value for `CC(C)(O)CNC(=O)c1cc(-c2ccc(C(F)F)cc2)nc(-c2cccnc2)n1` [Example 120, 6-[4-(difluoromethyl)phenyl]-N-(2-hydroxy-2-methylpropyl)-2-(pyridin-3-yl)pyrimidine-4-carboxamide] was 10.2 nM.
